Assay results published in paper PMC3726599, “A Metabolically-Stabilized Phosphonate Analog of Lysophosphatidic Acid Attenuates Collagen-Induced Arthritis” (PLoS ONE, 2013).

What was measured:
[1] = Mouse pharmacokinetics, plasma BrP-LPA by HPLC-MS/MS; format: in vivo; conditions: 10 mg/kg i.p.
Procedure: BrP-LPA, LPA species (C14:0, C16:0, C18:0, C18:1 and C20:4) and LPC species (C14:0, C16:0, C18:0, C18:1 and C20:0) were measured in plasma with HPLC-ESI/MS/MS using RSLCnano system (Ultimate 3000) coupled in-line with an LTQ Orbitrap XL mass spectrometer (Thermo Scientific, Waltham, MA, USA). BrP-LPA and lipid (LPA, LPC) extraction from plasma was performed on ice according to the Folch method with minor modifications. Plasma samples (50 ul) were mixed with 950 ul PBS prior to extraction and spiked with the internal standard mix (17:1 LPA/LPC). Samples were extracted under neutral conditions with 4 ml of ice-cold CHCl3/CH3OH (2/1, v/v) followed by 2 ml of PBS-saturated ice-cold CHCl3/CH3OH (2/1, v/v). Each extraction step was followed by a 60 s vortex and a 1 min centrifugation step in a bench-top clinical centrifuge in a cold room at 4°C at 3,000 rpm. The lower chloroform organic phases from both neutral extraction steps were pooled and kept for LPC measurement. The remained aqueous phase was chilled on ice for 10 min and extracted twice with ice-cold acidified with acetic acid CHCl3/CH3OH (2/1, v/v) as above. The lower organic phases were pooled, neutralized to pH 6–7 (checked with pH paper as above) on ice and kept for LPA, BrP-LPA measurements. The kept neutral lower organic phase of neutral extraction and the neutralized acidified lower organic phase were evaporated to dryness. The resulting residues were resuspended in 0.15 ml of isopropanol and after brief vortex mixing the solution was transferred to the auto sampler vial. Recovery of LPA species was between 60% and 95%. Recovery of BrP-LPA was 70% and the recovery of LPC species was between 80% and 100%. […] The precursor ion mass was used for the quantification while lipid identity was confirmed by precursor ion fragmentation using collision induced dissociation (CID). […]
BrP-LPA was administered intraperitoneally (IP) at 10 mg/kg in water to 6–8 week old female mice. […] Plasma samples were then analysed for plasma ATX activity and BrP-LPA/LPA/LPC levels with the TOOS activity assay and HPLC-MS/MS respectively. […]

[2] = test system: collagen induced arthritis (CIA); assay: Collagen induced arthritis (CIA) in DBA/1 mice; format: in vivo, mouse
Procedure: CIA in DBA/1 mice was induced by immunization with collagen type II emulsified in complete Freund's adjuvant essentially as previously described, [43]. Mice were assessed for disease clinical signs two to three times per week. Clinical signs of arthritis were determined using the following scoring system: 0: no evidence of erythema and swelling; 1: erythema and mild swelling confined to the […] or ankle joint; 2: erythema and mild swelling extending from the ankle to the […]; 3: erythema and moderate swelling extending from the ankle to metatarsal joints; 4: erythema and severe swelling encompassing the ankle, foot and digits, or ankylosis of the limb.
Paraffin-embedded joint tissue samples were sectioned and stained with hematoxylin and eosin as previously described, [44]. Arthritic histopathology in mice was assessed (in a blinded fashion from 3 independent examiners) using a semi-quantitative scoring system as previously described for CIA in a DBA/1 (H-2^q) background. 0: no detectable pathology; 1: hyperplasia of the synovial membrane and presence of polymorphonuclear infiltrates – mild tendonitis may be present; 2: pannus and fibrous tissue formation and focal subchondrial bone erosion: 3: cartilage destruction and bone erosion in multiple foci; 4: extensive cartilage destruction and bone erosion- bone outline structure lost. Presented results refer to an average score of all four joints.
To examine the therapeutic potential of targeting the ATX/LPA axis in RA, BrP-LPA was injected intraperitoneally twice a week (following immunization boost; Fig. 4A), in groups of mice undergoing the development of collagen induced arthritis (CIA).
A. Schematic representation of immunization and drug administration schemes. DBA/1 mice subjected to CIA were treated intraperitoneally with vehicle, BrP-LPA (10 mg/kg), or dexamethasone (Dex, 3 mg/kg) twice a week. B–C. […] Data are pooled from two different experiments (n = 10). […] Joint sections were assessed histologically in a blinded manner by three independent examiners. Data are shown as mean joint values per mouse ± SD. […] Levels of CII-specific Abs were determined by ELISA in mouse sera.

[3] = test system: LPA2; conditions: Ca++ mobilization, RH7777 cells; kind of constant not given; read-out: inhibition of LPA2; cited from earlier work
[4] = test system: LPA3; conditions: Ca++ mobilization, RH7777 cells; kind of constant not given; read-out: inhibition of LPA3; cited from earlier work
[5] = test system: transformed NIH3T3 cells expressing ras and ATX; parameters: method as in PMID 18454946; conditions: cited from earlier work
[6] = test system: human colon cancer cells (HCT-116); parameters: method as in earlier work; conditions: HCT-116, in vitro; cited from earlier work
[7] = test system: lymphocyte trafficking; parameters: method as in PMID 23365076; conditions: cited from earlier work
[8] = 10 mg/kg i.p. twice a week, DBA/1 mice

- Cmin ([1]; at 16 h): 0.15 µM
- Cmax ([1]; female mice): 8 µM
- t1/2 ([1]; female mice): 50 min
- BrP-LPA levels in joint tissue versus liver tissue and plasma ([2]; data not shown): persist for longer in joint tissue
Structure (SMILES): CCCCCCCCCCCCCCCC(=O)OC[C@@H](O)CC(Br)P(=O)(O)O (stereo partly drawn) [BrP-LPA, 1-bromo-3(S)-hydroxy-4-(palmitoyloxy)butyl-phosphonate]
- development of arthritis (number of arthritic limbs per mouse) [2, 8]: development of arthritis in significantly fewer mice
- severity per arthritic limb [2, 8]: reduced severity per arthritic limb
- histopathological analysis of the joints ([2]; 10 mg/kg i.p. twice a week, H&E): marked decreased inflammation and synovial hyperplasia
- gross physiology / systemic side effects ([2]; 10 mg/kg i.p. twice a week, data not shown): no appreciable alternation of gross physiology
- levels of anti-collagen antibodies ([2]; ELISA in mouse sera): did not interfere with the levels of anti-collagen antibodies
- LPA (or LPC) levels in plasma or joint tissue at end of monitoring ([2]; three days after the last injection, data not shown): no changes in LPA (or LPC) levels were detected
- IC50 [3]: 1400 nM
- IC50 [4]: 1200 nM
- inhibition of invasiveness [5]: 40%
- proliferation, migration and invasion [6]: reduce human colon cancer cells (HCT-116) proliferation, migration and invasion in vitro
- lymphocyte trafficking in draining lymph nodes [7]: reduce lymphocyte trafficking in draining lymph nodes
